# Numbered stars: 1 amine (or outer) side, 2 acyl side, 3 side chain; on linkers, the order of the positions; unused ones are H or OH. Square brackets hold non-standard residues; d marks the D form. Side chains are listed from the residue outwards. Peptide text beside a SMILES is read from it. * marks the point of attachment. C18 diacid = O=C(O)CCCCCCCCCCCCCCCCC(=O)*; γGlu = O=C(O)[C@H](CCC(=O)[*:2])N[*:1]; AEEA = NCCOCCOCC(=O)O; Aib = CC(C)(N)C(=O)O
# Columns and labels:
# human GLP-1 receptor = biological target: T1, human GLP-1 receptor (Homo sapiens, UniProt P43220); assay: GLP-1 receptor potency, CRE luciferase reporter gene assay in BHK cells; format: cell-based; conditions: BHK cells expressing human GLP-1 receptor, read-out: EC50 GLP-1R
# T1 construct: expressed in transfected cells; host or cells: BHK cells (parent BHKTS13), clone FCW467-12A/KZ10-1, with CRE luciferase
# How it was run: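 Potency as cAMP-driven firefly luciferase signal after 3 h, 37° C exposure to 10-fold dilutions (final 1×10EE-13–1×10EE-6 M). Stable hGLP-1R/CRE-luc BHK clone, 5×10EE3 cells/well, medium containing 2% ovalbumin and 0.2% Pluronic F-68; EC50 (pM) from variable-slope non-linear regression.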
# human glucagon receptor = biological target: T2, human glucagon receptor (Homo sapiens, UniProt P47871); assay: Glucagon receptor potency, CRE luciferase reporter gene assay in BHK cells; format: cell-based; conditions: BHK cells expressing human glucagon receptor, read-out: EC50 GlucR
# T2 construct: expressed in transfected cells; host or cells: BHK cells (parent BHK570, CRE luciferase clone BHK/KZ10-20-48), clone pLJ6'-4-25
# Protocol: The purpose of this example was to test the potency, of the glucagon derivatives of the invention, in vitro. The in vitro potency is the measure of human GLP-1 receptor or glucagon receptor activation, respectively, in a whole cell assay.
# In vitro potency was determined by measuring the response of human GLP-1 or glucagon receptor, respectively, in a reporter gene assay. The assay was performed in a stably transfected BHK cell line that expresses either the human GLP-1 receptor or the human glucagon receptor and contains the DNA for the cAMP response element (CRE) coupled to a promoter and the gene for firefly luciferase (CRE luciferase). […] When assay incubation was completed, the luciferase substrate (luciferin) was added and the enzyme converted luciferin to oxyluciferin and produces bioluminescence. The luminescence was measured as the readout for the assay.
# The cells used in this assay (clone pLJ6′-4-25) were BHK cells with BHK570 as a parent cell line expressing the CRE luciferase gene (clone BHK/KZ10-20-48) and were established by further transfection with the human glucagon receptor (clone pLJ6′ in pHZ-1 vector).
# The cells were cultured at 5% CO2 in DMEM medium with 10% FBS, 1×GlutaMAX, 1 mg/ml G418, 240 nM MTX (methotrexate) and 1% pen/strep (penicillin/streptomycin). They were aliquoted and stored in liquid nitrogen. Before each assay, an aliquot was taken up and washed three times in PBS before being suspended at the desired concentration in assay medium. For 96-well plates the suspension was made to give a final concentration of 5×10EE3 cells/well.
# The following chemicals were used in the assay: Pluronic F-68 (10%) (Gibco 2404), ovalbumin (Sigma A5503), DMEM w/o phenol red (Gibco 11880-028), 1 M Hepes (Gibco 15630), Glutamax 100× (Gibco 35050) and steadylite plus (PerkinElmer 6016757).
# Assay Medium consisted of DMEM w/o phenol red, 10 mM Hepes, 1× GlutaMAX, 2% Ovalbumin and 0.2% Pluronic F-68.
# Cell stocks were thawed in a 37° C. water bath. Cells were washed three times in PBS. The cells were counted and adjusted to 5×10EE3 cells/50 μl (1×10EE5 cells/ml) in Assay Medium. A 50 μl aliquot of cells was transferred to each well in the assay plate.
# Stocks of the test compounds and reference compounds were diluted to a concentration of […] in Assay Medium. Compounds were diluted 10-fold to give the following concentrations: 2×10EE-6 M, 2×10EE-7 M, 2×10EE-8 M; 2×10EE-9 M, 2×10EE-10 M, 2×10EE-11 M, 2×10EE-12 M and 2×10EE-13 M. For each compound a blank assay medium control was also included.
# A 50 μl aliquot of compound or blank was transferred from the dilution plate to the assay plate. Compounds were tested at the following final concentrations: 1×10EE-6 M, 1×10EE-7 M, 1×10EE-8 M; 1×10EE-9 M, 1×10EE-10 M, 1×10EE-11 M and 1×10EE-12 M and 1×10EE-13 M.
# The assay plate was incubated for 3 h in a 5% CO2 incubator at 37° C. The assay plate was removed from the incubator and allowed to stand at room temperature for 15 min. A 100 μl aliquot of steadylite plus reagent was added to each well of the assay plate (reagent is light sensitive). Each assay plate was covered with aluminum foil to protect it from light and shaken for 30 min at room temperature. Each assay plate was read in a Perkin Elmer TopCount NXT instrument.
# The data from the TopCount instrument was transferred to GraphPad Prism software. The software performed a non-linear regression (log(agonist) vs response-Variable slope (four parameter)). EC50 values were calculated by the software and reported in pM.
# [1] = Thioflavin T (ThT) fibrillation assay for physical stability; format: physicochemical; conditions: 250 μM in 10 mM HEPES buffer, pH 7.5, 37° C., shaking 960 rpm
# How it was run: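 Fibrillation was followed by ThT (1 μM) fluorescence every 20 min, 444/485 nm, for 250 μM peptide in 10 mM HEPES pH 7.5 shaken at 960 rpm, 37° C. Lag time (t0−2τ) and apparent rate constant (1/τ) come from a sigmoidal fit. Recovery is % of initial concentration remaining soluble after centrifugation and filtration (RP-HPLC).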
# [2] = Chemical stability assessment by RP-UPLC; format: physicochemical; conditions: 333 μM, 8 mM phosphate buffer pH 7.3, 37° C. vs 5° C.
# Protocol: The purpose of this assay was to assess the chemical stability of the glucagon derivatives of the invention in aqueous solutions.
# Chemical stability of glucagon derivatives or analogues was investigated by RP-UPLC separation and UV detection. Lyophilized samples were dissolved in a 8 mM Phosphate buffer pH 8.6, followed by adjustment to pH 7.3.using HCl to a final concentration of 333 μM. Samples were incubated for 14 days at 5° C. and 37° C. followed by RP-UPLC analysis. Purity was defined as the area percentage of the main peak in relation to the total area of all integrated peaks in each chromatogram. Purity loss after 14 days at 37° C. was determined as the difference in purity between the samples incubated at 5° C. and 37° C., divided by the purity of the sample after incubation for 14 days at 5° C.
# RP-UPLC analysis was performed using a Waters BEH130 2.1 mm×150 mm, 1.7 μm column operated at 50° C. and a flow rate of 0.4 mL/min using a mobile phase system consisting of A: 0.05% TFA in MQ-water B: 0.05% TFA in Acetonitrile. UV-detection was performed at 215 nm. The typical gradient profile used for most of the samples is shown below.
# For some individual derivatives or analogues eluting at substantially different retention times compared with the majority of derivatives or analogues, some adjustments to the gradient profile were made to better enable purity assessment comparison across samples. The data confirmed the improved chemical stability of the glucagon derivatives of this invention.
# T2 sequence (P47871 26-477): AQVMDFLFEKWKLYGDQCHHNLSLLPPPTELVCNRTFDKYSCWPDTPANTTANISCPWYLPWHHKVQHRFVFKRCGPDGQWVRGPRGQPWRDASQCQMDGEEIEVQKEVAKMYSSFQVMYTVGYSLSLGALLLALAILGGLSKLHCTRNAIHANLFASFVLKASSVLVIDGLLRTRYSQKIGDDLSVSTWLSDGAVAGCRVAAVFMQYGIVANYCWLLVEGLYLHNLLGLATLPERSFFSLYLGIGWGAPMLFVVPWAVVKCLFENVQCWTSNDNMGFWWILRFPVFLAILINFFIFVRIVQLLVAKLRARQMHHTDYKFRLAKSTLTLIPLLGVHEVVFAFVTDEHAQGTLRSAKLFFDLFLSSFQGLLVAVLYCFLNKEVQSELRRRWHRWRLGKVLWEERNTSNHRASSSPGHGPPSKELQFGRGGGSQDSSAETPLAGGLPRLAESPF
# T1 sequence (P43220 24-463): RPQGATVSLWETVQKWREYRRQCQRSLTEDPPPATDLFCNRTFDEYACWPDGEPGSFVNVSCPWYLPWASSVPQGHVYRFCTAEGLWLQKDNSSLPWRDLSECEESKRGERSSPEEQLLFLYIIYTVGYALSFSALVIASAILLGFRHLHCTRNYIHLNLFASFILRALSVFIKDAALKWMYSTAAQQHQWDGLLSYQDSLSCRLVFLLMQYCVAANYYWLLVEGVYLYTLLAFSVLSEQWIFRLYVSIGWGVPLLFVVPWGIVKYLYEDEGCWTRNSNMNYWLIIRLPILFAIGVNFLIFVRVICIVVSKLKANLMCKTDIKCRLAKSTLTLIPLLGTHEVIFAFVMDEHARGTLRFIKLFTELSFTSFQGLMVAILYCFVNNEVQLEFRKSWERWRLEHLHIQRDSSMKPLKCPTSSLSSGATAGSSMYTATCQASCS
EC50 (human GLP-1 receptor) [nM],EC50 (human glucagon receptor) [nM],THT assay Lag time (Ex. 76) [1] [h],Purity loss; 14 days at 37° C. [2] [%],Structure (SMILES)
0.008,0.054,–,–,"CC(C)C[C@H](NC(=O)[C@H](Cc1ccc(O)cc1)NC(=O)[C@H](CCCCN)NC(=O)[C@H](CO)NC(=O)[C@H](CC(C)C)NC(=O)[C@H](CC(=O)O)NC(=O)[C@H](CO)NC(=O)[C@@H](NC(=O)[C@H](Cc1ccccc1)NC(=O)[C@@H](NC(=O)CNC(=O)[C@H](CCC(N)=O)NC(=O)C(C)(C)NC(=O)[C@@H](N)Cc1c[nH]cn1)[C@@H](C)O)[C@@H](C)O)C(=O)N[C@@H](CC(=O)O)C(=O)N[C@@H](CCCCNC(=O)CC[C@H](NC(=O)CC[C@H](NC(=O)COCCOCCNC(=O)COCCOCCNC(=O)CC[C@H](NC(=O)CCCCCCCCCCCCCCCCC(=O)O)C(=O)O)C(=O)O)C(=O)O)C(=O)N[C@@H](CCCNC(=N)N)C(=O)N[C@@H](CCCNC(=N)N)C(=O)N[C@@H](C)C(=O)N[C@@H](CCCNC(=N)N)C(=O)N[C@@H](CC(=O)O)C(=O)N[C@@H](Cc1ccccc1)C(=O)N[C@H](C(=O)N[C@@H](CCC(N)=O)C(=O)N[C@@H](Cc1c[nH]c2ccccc12)C(=O)N[C@@H](CC(C)C)C(=O)N[C@@H](CC(C)C)C(=O)N[C@@H](CO)C(=O)N[C@H](C(N)=O)[C@@H](C)O)C(C)C [Example 1, N^ε16-[(4S)-4-carboxy-4-[[(4S)-4-carboxy-4-[[2-[2-[2-[[2-[2-[2-[[(4S)-4-carboxy-4-(17-carboxyheptadecanoylamino)butanoyl]amino]ethoxy]ethoxy]acetyl]amino]ethoxy]ethoxy]acetyl]amino]butanoyl]amino]butanoyl]-[Aib2,Leu10,Lys16,Arg20,Leu27,Ser28]-Glucagon amide] (H-H[Aib]QGTFTSDLSKYLDK([γGlu-γGlu-AEEA-AEEA-γGlu-C18 diacid])RRARDFVQWLLST-NH2; N-terminus assumed)"
0.004,0.016,–,–,"CC(C)C[C@H](NC(=O)[C@H](Cc1ccc(O)cc1)NC(=O)[C@H](CCCCN)NC(=O)[C@H](CO)NC(=O)[C@H](CC(C)C)NC(=O)[C@H](CC(=O)O)NC(=O)[C@H](CO)NC(=O)[C@@H](NC(=O)[C@H](Cc1ccccc1)NC(=O)[C@@H](NC(=O)CNC(=O)[C@H](CCC(N)=O)NC(=O)C(C)(C)NC(=O)[C@@H](N)Cc1c[nH]cn1)[C@@H](C)O)[C@@H](C)O)C(=O)N[C@@H](CC(=O)O)C(=O)N[C@@H](CO)C(=O)N[C@@H](CCCNC(=N)N)C(=O)N[C@@H](CCCNC(=N)N)C(=O)N[C@@H](C)C(=O)N[C@@H](CCCNC(=N)N)C(=O)N[C@@H](CC(=O)O)C(=O)N[C@@H](Cc1ccccc1)C(=O)N[C@H](C(=O)N[C@@H](CCC(N)=O)C(=O)N[C@@H](Cc1c[nH]c2ccccc12)C(=O)N[C@@H](CC(C)C)C(=O)N[C@@H](CC(C)C)C(=O)N[C@@H](CCCCNC(=O)CC[C@H](NC(=O)CC[C@H](NC(=O)COCCOCCNC(=O)COCCOCCNC(=O)CC[C@H](NC(=O)CCCCCCCCCCCCCCCCC(=O)O)C(=O)O)C(=O)O)C(=O)O)C(=O)N[C@H](C(N)=O)[C@@H](C)O)C(C)C [Example 4, N^ε28-[(4S)-4-carboxy-4-[[(4S)-4-carboxy-4-[[2-[2-[2-[[2-[2-[2-[[(4S)-4-carboxy-4-(17-carboxyheptadecanoylamino)butanoyl]amino]ethoxy]ethoxy]acetyl]amino]ethoxy]ethoxy]acetyl]amino]butanoyl]amino]butanoyl]-[Aib2,Leu10,Arg20,Leu27,Lys28]-Glucagon amide] (H-H[Aib]QGTFTSDLSKYLDSRRARDFVQWLLK([γGlu-γGlu-AEEA-AEEA-γGlu-C18 diacid])T-NH2; N-terminus assumed)"
–,–,45,1,"CC(C)C[C@H](NC(=O)[C@H](Cc1ccc(O)cc1)NC(=O)[C@H](CCCCN)NC(=O)[C@H](CO)NC(=O)[C@H](CC(C)C)NC(=O)[C@H](CC(=O)O)NC(=O)[C@H](CO)NC(=O)[C@@H](NC(=O)[C@H](Cc1ccccc1)NC(=O)[C@@H](NC(=O)CNC(=O)[C@H](CCC(N)=O)NC(=O)C(C)(C)NC(=O)[C@@H](N)Cc1c[nH]cn1)[C@@H](C)O)[C@@H](C)O)C(=O)N[C@@H](CCC(=O)O)C(=O)N[C@@H](CO)C(=O)N[C@@H](CCCCN)C(=O)N[C@@H](CCCNC(=N)N)C(=O)N[C@@H](C)C(=O)N[C@@H](CCCNC(=N)N)C(=O)N[C@@H](CCC(=O)O)C(=O)N[C@@H](Cc1ccccc1)C(=O)N[C@H](C(=O)N[C@@H](CCC(N)=O)C(=O)N[C@@H](Cc1c[nH]c2ccccc12)C(=O)N[C@@H](CC(C)C)C(=O)N[C@@H](CC(C)C)C(=O)N[C@@H](CCCCNC(=O)CC[C@H](NC(=O)CC[C@H](NC(=O)COCCOCCNC(=O)COCCOCCNC(=O)CC[C@H](NC(=O)CCCCCCCCCCCCCCCCC(=O)O)C(=O)O)C(=O)O)C(=O)O)C(=O)N[C@H](C(N)=O)[C@@H](C)O)C(C)C [Example 22, N^ε29-[(4S)-4-carboxy-4-[[(4S)-4-carboxy-4-[[2-[2-[2-[[2-[2-[2-[[(4S)-4-carboxy-4-(17-carboxyheptadecanoylamino)butanoyl]amino]ethoxy]ethoxy]acetyl]amino]ethoxy]ethoxy]acetyl]amino]butanoyl]amino]butanoyl]-[Aib2,Leu10,Glu15,Lys17,Arg20,Glu21,Leu27,Lys28]-Glucagon amide] (H-H[Aib]QGTFTSDLSKYLESKRAREFVQWLLK([γGlu-γGlu-AEEA-AEEA-γGlu-C18 diacid])T-NH2; N-terminus assumed)"
